Data on one compound can be found in paper PMC12487594, “Contusive spinal cord injury causes Nav1.8 dysfunction to upregulate small sensory neuron excitability” (The Journal of Physiology, 2025).

The target of the test is T1, Nav1.8 (Homo sapiens, UniProt Q9Y5Y9).
T1 construct: gene SCN10A
Put plainly: whole-cell patch clamp of Nav1.[…] + FHF4A in ND7/[…] cells ([…] TTX), […] h pre-incubation; transient current. In kind it is cell-based. (Patch clamp records ionic current or voltage across a cell membrane.)

Structures are written as SMILES. Peptide text beside a SMILES is read from it. * marks the point of attachment. Cbz = O=C(OCc1ccccc1)*; Boc = CC(C)(C)OC(=O)*

T1 sequence (Q9Y5Y9 whole entry, looked up): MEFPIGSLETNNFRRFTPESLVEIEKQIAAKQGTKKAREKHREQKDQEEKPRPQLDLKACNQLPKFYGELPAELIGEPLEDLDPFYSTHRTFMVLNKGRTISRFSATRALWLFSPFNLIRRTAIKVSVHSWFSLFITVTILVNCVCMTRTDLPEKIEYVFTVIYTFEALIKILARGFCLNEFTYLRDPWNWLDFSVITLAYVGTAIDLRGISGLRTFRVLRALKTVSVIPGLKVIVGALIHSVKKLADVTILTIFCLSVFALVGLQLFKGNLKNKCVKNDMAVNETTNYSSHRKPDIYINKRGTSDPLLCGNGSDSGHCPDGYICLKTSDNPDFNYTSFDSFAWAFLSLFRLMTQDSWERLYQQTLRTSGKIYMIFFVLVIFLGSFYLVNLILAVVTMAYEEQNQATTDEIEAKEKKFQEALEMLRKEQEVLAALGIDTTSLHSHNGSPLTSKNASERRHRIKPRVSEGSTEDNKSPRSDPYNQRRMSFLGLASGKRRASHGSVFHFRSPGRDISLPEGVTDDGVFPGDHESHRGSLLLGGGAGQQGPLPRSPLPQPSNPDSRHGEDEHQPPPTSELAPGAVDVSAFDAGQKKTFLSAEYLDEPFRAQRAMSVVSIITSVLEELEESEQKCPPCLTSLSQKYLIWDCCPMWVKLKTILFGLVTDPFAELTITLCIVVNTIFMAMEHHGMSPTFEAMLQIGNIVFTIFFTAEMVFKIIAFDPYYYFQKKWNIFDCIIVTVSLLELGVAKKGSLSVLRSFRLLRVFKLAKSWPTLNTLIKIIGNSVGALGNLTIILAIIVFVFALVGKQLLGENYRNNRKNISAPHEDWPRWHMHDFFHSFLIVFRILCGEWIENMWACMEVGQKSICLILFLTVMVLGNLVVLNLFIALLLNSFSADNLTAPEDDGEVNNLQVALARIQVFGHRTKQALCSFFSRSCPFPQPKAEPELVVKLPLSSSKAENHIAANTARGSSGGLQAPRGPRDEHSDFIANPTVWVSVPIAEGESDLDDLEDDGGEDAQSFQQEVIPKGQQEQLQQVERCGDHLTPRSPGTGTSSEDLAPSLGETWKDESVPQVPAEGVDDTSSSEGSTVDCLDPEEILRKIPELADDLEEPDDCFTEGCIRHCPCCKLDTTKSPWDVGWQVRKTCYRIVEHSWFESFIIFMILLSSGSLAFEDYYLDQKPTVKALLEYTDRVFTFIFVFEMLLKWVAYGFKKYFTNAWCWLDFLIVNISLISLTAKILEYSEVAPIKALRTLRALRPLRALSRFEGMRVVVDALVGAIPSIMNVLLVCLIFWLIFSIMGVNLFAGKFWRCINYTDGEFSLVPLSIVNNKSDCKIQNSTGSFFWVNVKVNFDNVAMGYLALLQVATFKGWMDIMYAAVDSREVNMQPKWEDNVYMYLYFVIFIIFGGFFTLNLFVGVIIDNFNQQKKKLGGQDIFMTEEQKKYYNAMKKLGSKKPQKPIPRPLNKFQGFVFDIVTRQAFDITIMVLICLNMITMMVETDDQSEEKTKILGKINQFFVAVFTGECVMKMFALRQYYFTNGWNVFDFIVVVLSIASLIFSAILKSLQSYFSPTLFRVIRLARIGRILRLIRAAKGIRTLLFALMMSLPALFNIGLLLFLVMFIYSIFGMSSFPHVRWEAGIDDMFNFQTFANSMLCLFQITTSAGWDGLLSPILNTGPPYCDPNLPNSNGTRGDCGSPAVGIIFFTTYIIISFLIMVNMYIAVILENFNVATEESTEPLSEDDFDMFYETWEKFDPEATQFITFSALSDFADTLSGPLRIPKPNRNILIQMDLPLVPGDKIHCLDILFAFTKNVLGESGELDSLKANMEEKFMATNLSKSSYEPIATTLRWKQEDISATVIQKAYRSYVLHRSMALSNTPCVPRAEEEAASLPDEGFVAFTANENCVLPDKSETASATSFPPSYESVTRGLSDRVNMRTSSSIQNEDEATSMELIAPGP

Regarding `CC(C)C[C@H](NC(=O)[C@H](Cc1ccccc1)NC(=O)OCc1ccccc1)C(=O)N1CCC[C@H]1C(=O)N[C@@H](CCCCNC(=O)OC(C)(C)C)C(N)=O` [ZL0177] (Cbz-FLPK(Boc)-NH2), the concentration for half-maximal inhibition (IC50) (commonly the midpoint of a concentration-inhibition curve) is about 19.5 µM.
